Laboratory results: patent publication US20240182456A1, “2-((4-((S)-2-(4-CHLORO-2-FLUOROPHENYL)-2-METHYLBENZO[D][1,3]DIOXOL-4-YL)PIPERIDIN-1-YL)METHYL)-1-(((S)-OXETAN-2-YL)METHYL)-1H-IMIDAZOLE DERIVATIVES AS ACTIVATORS OF THE GLP1 RECEPTOR FOR THE TREATMENT OF OBESITY” (Novartis AG, priority 2021, published 2024)
Values belong to the compound of their own block, whether it stands above or below them.

Columns and labels:
human GLP1R (hGLP1R) = human GLP1R (hGLP1R) (Homo sapiens, UniProt P43220); test: Human GLP1R cAMP agonist assay (GloSensor); type: cell-based; details: HEK293-SNAP-hGLP1R-GloSensor cells; for Emax: cAMP, normalized to GLP1(7-36) maximum response, read-out: Emax mean; for EC50: intracellular cAMP, mean n=3 where SEM is given
Sequence of human GLP1R (hGLP1R) (P43220 24-463): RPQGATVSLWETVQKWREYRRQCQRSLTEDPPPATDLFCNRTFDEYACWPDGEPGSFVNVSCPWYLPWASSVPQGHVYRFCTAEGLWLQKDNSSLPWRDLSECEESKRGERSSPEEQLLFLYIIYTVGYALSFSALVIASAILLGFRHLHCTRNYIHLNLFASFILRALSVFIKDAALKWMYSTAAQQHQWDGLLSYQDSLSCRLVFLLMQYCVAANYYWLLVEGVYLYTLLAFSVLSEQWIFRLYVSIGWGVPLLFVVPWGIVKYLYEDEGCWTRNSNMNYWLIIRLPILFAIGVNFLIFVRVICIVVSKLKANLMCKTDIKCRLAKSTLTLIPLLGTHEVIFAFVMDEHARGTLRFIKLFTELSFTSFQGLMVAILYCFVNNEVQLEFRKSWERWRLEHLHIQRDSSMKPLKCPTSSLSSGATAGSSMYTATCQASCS
Protocol: Compounds 1 to 31 were tested in the following cellular assays that measure the intracellular cAMP concentration, beta-arrestin recruitment and receptor internalization. The cAMP is generated by the activation of GLP1R. The cAMP data obtained is shown in Table 1 (where S.E.M. is included, mean n=3 independent experiments+/−S.E.M). Beta-arrestin is recruited upon activation of GLP1R and the data obtained are shown in Table 2 (mean n=2 independent experiments, +/−S.D). The extent to which the GLP1R is internalized into the cell and away from the plasma membrane following activation is also shown in Table 2 (mean n=2 independent experiments, +/−S.D). EC50 for each assay is defined as the concentration of the compound that leads to half of the maximum response (after baseline correction). Emax is defined as the maximum response observed for the test compound, normalized to the maximum response observed for the endogenous ligand (GLP1(7-36)) to GLP1R.
Human GLP1R cAMP Agonist Assay
The agonist activity of compounds was determined using the GloSensor™ cAMP Assay (Promega Corp.), which measures changes in the intracellular concentration of cAMP after ligand activation of GPCRs. The assay uses a biosensor encoded by pGloSensor™-22F cAMP plasmid (Promega, cat #E2301) with cAMP binding domains fused to a mutant form of Photinus pyralis luciferase. Binding to cAMP causes conformational changes that promote large increases in light output, which can be measured by a luminescence detector. HEK293-SNAP-hGLP1R-GloSensor cells stably overexpressing the human GLP1 receptor (hGLP1R) and pGloSensor™-22F were seeded in white 384-well poly-D-Lysine coated plates (Greiner Bio One, cat #781945) in CO2-independent media (Gibco cat #18045-088 with 1.0% FBS, 2 mM L-glutamine, penicillin and streptomycin) and incubated overnight at 37° C., 5% CO2 with humidity. The assay was started the following morning by adding an equal volume of CO2-independent media containing 4% v/v dilution of the GloSensor substrate (Promega, cat #E1291) to all wells. The cell plate was incubated at rt for 2 h in the dark. The Biomek 7 (Beckman Coulter) instrument was used for the liquid handling steps. To generate duplicate dose response curves, 3-fold serially diluted compounds were added in to the cell assay plate to a final volume of 60 μL with final concentrations ranging from 30 μM through 0.06 μM in CO2-independent media containing 0.1% BSA, 0.5 mM IBMX and 0.4% DMSO. In the same plate and assay buffer as the tested compounds, were EC100 control wells containing GLP1 (7-36) peptide (Bachem, cat #H-6795) at a final concentration of 2 nM and also EC0 control wells containing no peptide. This plate was incubated at rt in the dark for 12 min after adding the compounds to the cells. Luminescence was then measured with an Envision 2104 Multilabel reader with “TRF Light Unit, 337 nm” (PerkinElmer) using the Ultra-Sensitive protocol setting “384-well US luminescence detector” with the 384-well luminescence aperture, 0.1 seconds per well. cAMP activity was calculated as percent of the GLP1 (7-36) EC100 control wells: [(sample signal−mean EC0 signal)/(mean EC100 of GLP1 (7-36) signal−mean EC0 signal)}*100. Curve fitting for EC50 determinations was performed in the Helios module of the software package DAVID. The 4-parameter logistic model, Hill slope was used: y=Ainf+(A0−Ainf)/(1+(x/AC50)^Hill Slope) where y is the functional response; x is the compound concentration; A0 is the minimum value (at 0 dose); Ainf is the maximum value (at infinite dose); AC50 corresponds to the point of inflection (i.e. the point on the sigmoid shaped curve halfway between A0 and Ainf). The EC50 value was represented by the AC50 value calculated from Helios in μM. Emax is the maximal activity detected within the concentration range, derived from the fitted curve. […]

[1] = Pharmacokinetics in C57BL/6 mice (i.v. and oral); details: for AUC(0-inf) / Vd / clearance / half-life / Cmax / Tmax: male, C57BL/6, mouse
Protocol: Blood concentration versus time profiles were obtained from 2 groups of 3 male mice. The compound was administered intravenously (i.v.) by bolus injection (5 mL/kg) at a dose of 1 mg/kg in N-methyl-2-pyrrolidone (10%) and 4% bovine serum albumins (BSA) in phosphate-buffered saline (PBS) (90%) or orally administered at a dose of 3 mg/kg (10 mL/kg) as a homogenous suspension of Water (99.4%), Tween 80 (0.1%) and methylcellulose (0.5%). Following compound administration, blood (10 μL/time point) were collected by puncture of the tail vein into ethylenediaminetetraacetic (EDTA)-coated tubes, at 0.083 (i.v. only), 0.25, 0.5, 1, 3, 7, & 24 hours post dose.
Bioanalysis: An aliquot of 10 μL of blood sample and matrix calibration standards were added to a 96-well plate. The samples were extracted using a protein precipitation procedure with addition of 80 μL acetonitrile containing internal standard. The samples were vortexed and centrifuged at 3000 rpm for 5 minutes. A 70 μL aliquot of supernatant was transferred to a clean 96-well plate and a 70 μL of water was added to each well and vortexed. Samples were analyzed and quantified by LC-MS/MS using the conditions outlined below.
• Mass Spectrometer: AP16500+ • Liquid Chromatograph: Agilent 1290 for Compound 3; Shimadzu LC30 AD for Compound 5 • Autosampler (ALS): Agilent 1290 for Compound 3; Shimadzu SIL30AC for Compound 5
• LC Column Acquity BEH C18, 50×2.1 mm, 1.7 μm • Solvent A: • 5:95:0.1 (v:v:v) Acetonitrile:Water:Formic Acid for Compound 3 • 100:0.1 (v:v) Water:Formic acid for Compound 5 • Solvent B: • 50:50:0.1 (v:v:v) Acetonitrile:Methanol:Formic Acid for Compound 3 • 100:0.1 (v:v) Acetonitrile:Formic acid for Compound 5 • Injection Volume [μL]: 1 for Compound 5; 20 for Compound 3 • Column Oven Temp. [° C.]: 50 Compound 3; 40 for Compound 5 • ALS Temp. [° C.]: 5
• Ion Source: TIS • Polarity: Positive • Temperature: 550 • Gas 1: 55 • Gas 2: 55 • Curtain Gas: 20 • Ion Spray Voltage [V]: 5500 for Compound 5; 4500 for Compound 3 • CAD Gas: 9

Structure (SMILES): CC(Cc1cnc(CN2CCC(c3cccc4c3O[C@@](C)(c3ccc(Cl)cc3F)O4)CC2)n1C[C@@H]1CCO1)C(=O)O (single isomer, unassigned) [Compound C-17a]
- Emax (human GLP1R (hGLP1R)): 104%
- EC50 (human GLP1R (hGLP1R)): 1.2 nM

Structure (SMILES): C[C@]1(c2ccc(Cl)cc2F)Oc2cccc(C3CCN(Cc4nc(C(F)(F)F)c(/C=C/C(=O)O)n4C[C@@H]4CCO4)CC3)c2O1 [Compound 8]
- BAV ([1]; male C57BL/6 mice, 3 mg/kg oral dose vs 1 mg/kg i.v.): 60.9 ± 5.26%
- AUC(0-inf) ([1]; in vivo, iv, 1 mg/kg): 3.75 ± 0.149 µM·h
- Vd ([1]; in vivo, iv, 1 mg/kg): 1.65 ± 0.025 L/kg
- clearance ([1]; in vivo, iv, 1 mg/kg): 7 ± 0.283 mL/min/kg
- half-life ([1]; in vivo, iv, 1 mg/kg): 3.02 ± 0.168 h
- AUC(0-inf) ([1]; in vivo, po, 3 mg/kg): 6.86 ± 0.591 µM·h
- Cmax ([1]; in vivo, po, 3 mg/kg): 768 ± 112 nM
- Tmax ([1]; in vivo, po, 3 mg/kg): 1 h
- half-life ([1]; in vivo, po, 3 mg/kg): 2.7 ± 0.202 h

Structure (SMILES): C[C@]1(c2ccc(Cl)cc2F)Oc2cccc(C3CCN(Cc4ncc(/C=C/C(=O)O)n4C[C@@H]4CCO4)CC3)c2O1 [Compound 1]
- AUC(0-inf) ([1]; whole blood, iv, 1 mg/kg): 0.509 ± 0.389 µM·h
- Vd ([1]; whole blood, iv, 1 mg/kg): 4.83 ± 1.79 L/kg
- clearance ([1]; whole blood, iv, 1 mg/kg): 82.3 ± 51.7 mL/min/kg
- half-life ([1]; whole blood, iv, 1 mg/kg): 1.06 ± 0.141 h
- AUC(0-inf) ([1]; whole blood, po, 3 mg/kg): 0.538 ± 0.136 µM·h
- Cmax ([1]; whole blood, po, 3 mg/kg): 240 ± 75.4 nM
- Tmax ([1]; whole blood, po, 3 mg/kg): 0.75 ± 0.434 h
- half-life ([1]; whole blood, po, 3 mg/kg): 1.22 ± 0.305 h

Structure (SMILES): C[C@]1(c2ccc(Cl)cc2F)Oc2cccc(C3CCN(Cc4nc(-c5ccc(F)cc5)c(C#CC(=O)O)n4C[C@@H]4CCO4)CC3)c2O1 [Compound C-29, 3-(2-((4-((S)-2-(4-chloro-2-fluorophenyl)-2-methylbenzo[d][1,3]dioxol-4-yl)piperidin-1-yl)methyl)-4-(4-fluorophenyl)-1-(((S)-oxetan-2-yl)methyl)-1H-imidazol-5-yl)propiolic acid]
- Emax (human GLP1R (hGLP1R)): 104%
- EC50 (human GLP1R (hGLP1R)): 0.0473 nM

Continued, values first:

- Emax (human GLP1R (hGLP1R)): 110%
- EC50 (human GLP1R (hGLP1R)): 1.08 nM
Structure (SMILES): Cc1nc(CN2CCC(c3cccc4c3O[C@@](C)(c3ccc(Cl)cc3F)O4)CC2)n(C[C@@H]2CCO2)c1C(O)CC(=O)O (mixture of isomers) [Compound C-28, 3-(2-((4-((S)-2-(4-chloro-2-fluorophenyl)-2-methylbenzo[d][1,3]dioxol-4-yl)piperidin-1-yl)methyl)-4-methyl-1-(((S)-oxetan-2-yl)methyl)-1H-imidazol-5-yl)-3-hydroxypropanoic acid]

- Emax (human GLP1R (hGLP1R)): 107%
- EC50 (human GLP1R (hGLP1R)): 1.2 nM
Structure (SMILES): Cc1nc(CN2CCC(c3cccc4c3O[C@@](C)(c3ccc(Cl)cc3F)O4)CC2)n(C[C@@H]2CCO2)c1C12CC(C(=O)O)(C1)C2 [Compound C-23a, 3-(2-((4-((S)-2-(4-chloro-2-fluorophenyl)-2-methylbenzo[d][1,3]dioxol-4-yl)piperidin-1-yl)methyl)-4-methyl-1-(((S)-oxetan-2-yl)methyl)-1H-imidazol-5-yl)bicyclo[1.1.1]pentane-1-carboxylic acid]

- Emax (human GLP1R (hGLP1R)): 109%
- EC50 (human GLP1R (hGLP1R)): 8.28 nM
Structure (SMILES): Cc1c(C(=O)O)nc(CN2CCC(c3cccc4c3O[C@@](C)(c3ccc(Cl)cc3F)O4)CC2)n1C[C@@H]1CCO1 [Compound C-4, 2-((4-((S)-2-(4-chloro-2-fluorophenyl)-2-methylbenzo[d][1,3]dioxol-4-yl)piperidin-1-yl)methyl)-5-methyl-1-(((S)-oxetan-2-yl)methyl)-1H-imidazole-4-carboxylic acid]
